Measured values from patent EP0908457B1, “3-(1,2-benzisothiazol- and isoxazol-5-Y1)-2,4(1H,3H)-pyrimidinedione or thione and 3-(1,2-benzisothiazol- and isoxazol-5-y1)-4(3H)-pyrimidinone or thione herbicidal agents” (BASF AKTIENGESELLSCHAFT, priority 1997, dated 1999).

What was measured:
[1] = test system: Oryza sativa, (L.) Tebonnet; assay: Rice tolerance to post-transplant applications under flooded paddy conditions (Example 187), ORYSAT (Rice, Tebonnet); settings: rated three to four weeks after treatment
[2] = test system: Echinochloa oryzoides (Ard.) Fritsch.; assay: Preemergence weed control under flooded paddy conditions, ECHORC (Watergrass (Calif.)); format: in vivo; settings: preemergence, flooded paddy, rated three to four weeks after treatment; as to herbicidal effect rating, ECHORC: meaning of each grade not given here
Sagittaria pygmaea, L. = assay: Preemergence weed control under flooded paddy conditions, SAGPY (Arrowhead (Pygmaea)); format: in vivo; settings: preemergence, flooded paddy, rated three to four weeks after treatment; as to herbicidal effect rating, SAGPY: meaning of each grade not given here
[3] = test system: Monochoria vaginalis, Presl.; assay: Preemergence weed control under flooded paddy conditions, MOOVA (Monochoria); format: in vivo; settings: preemergence, flooded paddy, rated three to four weeks after treatment; as to herbicidal effect rating, MOOVA: meaning of each grade not given here
Cyperus iria = assay: Preemergence weed control under flooded paddy conditions, CYPIR (Rice Flatsedge); format: in vivo; settings: preemergence, flooded paddy, rated three to four weeks after treatment; as to herbicidal effect rating, CYPIR: meaning of each grade not given here
[4] = test system: Cyperus serotinus, Rottb.; assay: Preemergence weed control under flooded paddy conditions, CYPSE (Flatsedge); format: in vivo; settings: preemergence, rated three to four weeks after treatment; as to herbicidal effect rating, CYPSE: meaning of each grade not given here

COC(=O)COc1c(C)cc(C)cc1-c1nsc2ccc(-n3c(=O)cc(C(F)(F)F)n(C)c3=O)cc12 [Example 26, Methyl {{6-{5-[3,6-dihydro-3-methyl-2,6-dioxo-4-(trifluoromethyl)-1(2H)-pyrimidinyl]-1,2-benzisothiazol-3-yl}-2,4-xylyl}oxy}acetate]
herbicidal effect rating, ORYSAT (rice tolerance) ([1]; 0.0313 kg/ha): 3.0
herbicidal effect rating, ORYSAT (rice tolerance) ([1]; 0.0625 kg/ha): 4.0
herbicidal effect rating, ORYSAT (rice tolerance) ([1]; 0.1250 kg/ha): 6.0
herbicidal effect rating, ORYSAT (rice tolerance) ([1]; 0.2500 kg/ha): 9.0
herbicidal effect rating, ECHORC ([2]; 0.0313 kg/ha): 7.0
herbicidal effect rating, ECHORC ([2]; 0.0625 kg/ha): 9.0
herbicidal effect rating, ECHORC ([2]; 0.1250 kg/ha): 9.0
herbicidal effect rating, ECHORC ([2]; 0.2500 kg/ha): 9.0
herbicidal effect rating, SAGPY (Sagittaria pygmaea, L.; 0.0313 kg/ha): 0.0
herbicidal effect rating, SAGPY (Sagittaria pygmaea, L.; 0.0625 kg/ha): 0.0
herbicidal effect rating, SAGPY (Sagittaria pygmaea, L.; 0.1250 kg/ha): 2.0
herbicidal effect rating, SAGPY (Sagittaria pygmaea, L.; 0.2500 kg/ha): 9.0
herbicidal effect rating, MOOVA ([3]; 0.0313 kg/ha): 9.0
herbicidal effect rating, MOOVA ([3]; 0.0625 kg/ha): 9.0
herbicidal effect rating, MOOVA ([3]; 0.1250 kg/ha): 9.0
herbicidal effect rating, MOOVA ([3]; 0.2500 kg/ha): 9.0
herbicidal effect rating, CYPIR (Cyperus iria; 0.0313 kg/ha): 6.0
herbicidal effect rating, CYPIR (Cyperus iria; 0.0625 kg/ha): 8.0
herbicidal effect rating, CYPIR (Cyperus iria; 0.1250 kg/ha): 9.0
herbicidal effect rating, CYPIR (Cyperus iria; 0.2500 kg/ha): 9.0
herbicidal effect rating, CYPSE ([4]; 0.0313 kg/ha): 0.0
herbicidal effect rating, CYPSE ([4]; 0.0625 kg/ha): 4.0
herbicidal effect rating, CYPSE ([4]; 0.1250 kg/ha): 2.0
herbicidal effect rating, CYPSE ([4]; 0.2500 kg/ha): 9.0

Cc1ccc(OCC(=O)OC(C)(C)C)c(-c2noc3ccc(-n4c(=O)cc(C(F)(F)F)n(C)c4=O)c(Cl)c23)c1 [Example 265, Acetic acid, {{2-{4-chloro-5-[3,6-dihydro-3-methyl-2,6-dioxo-4-(trifluoromethyl)-1(2H)-pyrimidinyl]-1,2-benzisoxazol-3-yl}-p-tolyl}oxy}-, tert-butyl ester]
ORYSAT herbicidal effect rating ([1]; Rate 0.0320 kg/ha): 0.0
ORYSAT herbicidal effect rating ([1]; Rate 0.0620 kg/ha): 0.0
ORYSAT herbicidal effect rating ([1]; Rate 0.1250 kg/ha): 0.0
ORYSAT herbicidal effect rating ([1]; Rate 0.2500 kg/ha): 0.0
ECHORC herbicidal effect rating ([2]; Rate 0.0320 kg/ha): 0.0
ECHORC herbicidal effect rating ([2]; Rate 0.0620 kg/ha): 0.0
ECHORC herbicidal effect rating ([2]; Rate 0.1250 kg/ha): 0.0
ECHORC herbicidal effect rating ([2]; Rate 0.2500 kg/ha): 0.0
SAGPY herbicidal effect rating (Sagittaria pygmaea, L.; Rate 0.0320 kg/ha): 0.0
SAGPY herbicidal effect rating (Sagittaria pygmaea, L.; Rate 0.0620 kg/ha): 0.0
SAGPY herbicidal effect rating (Sagittaria pygmaea, L.; Rate 0.1250 kg/ha): 0.0
SAGPY herbicidal effect rating (Sagittaria pygmaea, L.; Rate 0.2500 kg/ha): 0.0
MOOVA herbicidal effect rating ([3]; Rate 0.0320 kg/ha): 9.0
MOOVA herbicidal effect rating ([3]; Rate 0.0620 kg/ha): 9.0
MOOVA herbicidal effect rating ([3]; Rate 0.1250 kg/ha): 9.0
MOOVA herbicidal effect rating ([3]; Rate 0.2500 kg/ha): 9.0
CYPIR herbicidal effect rating (Cyperus iria; Rate 0.0320 kg/ha): 0.0
CYPIR herbicidal effect rating (Cyperus iria; Rate 0.0620 kg/ha): 0.0
CYPIR herbicidal effect rating (Cyperus iria; Rate 0.1250 kg/ha): 0.0
CYPIR herbicidal effect rating (Cyperus iria; Rate 0.2500 kg/ha): 3.0
CYPSE herbicidal effect rating ([4]; Rate 0.0320 kg/ha): 0.0
CYPSE herbicidal effect rating ([4]; Rate 0.0620 kg/ha): 0.0
CYPSE herbicidal effect rating ([4]; Rate 0.1250 kg/ha): 0.0
CYPSE herbicidal effect rating ([4]; Rate 0.2500 kg/ha): 0.0

COC(=O)COc1cc(C)ccc1-c1nsc2cc(F)c(-n3c(=O)cc(C(F)(F)F)n(C)c3=O)cc12 [Example 479, Acetic acid, {{6-{5-[3,6-dihydro-3-methyl-2,6-dioxo-4-(trifluoromethyl)-1(2H)-pyrimidinyl]-6-fluoro-1,2-benzisothiazol-3-yl}-m-tolyl}oxy}-, methyl ester]
ORYSAT herbicidal rating (rice tolerance) ([1]; 0.0320 kg/ha): 5.0
ORYSAT herbicidal rating (rice tolerance) ([1]; 0.0620 kg/ha): 5.0
ORYSAT herbicidal rating (rice tolerance) ([1]; 0.1250 kg/ha): 9.0
ORYSAT herbicidal rating (rice tolerance) ([1]; 0.2500 kg/ha): 9.0
ECHORC herbicidal rating ([2]; 0.0320 kg/ha): 7.0
ECHORC herbicidal rating ([2]; 0.0620 kg/ha): 7.0
ECHORC herbicidal rating ([2]; 0.1250 kg/ha): 9.0
ECHORC herbicidal rating ([2]; 0.2500 kg/ha): 9.0
SAGPY herbicidal rating (Sagittaria pygmaea, L.; 0.0320 kg/ha): 3.0
SAGPY herbicidal rating (Sagittaria pygmaea, L.; 0.0620 kg/ha): 5.0
SAGPY herbicidal rating (Sagittaria pygmaea, L.; 0.1250 kg/ha): 6.0
SAGPY herbicidal rating (Sagittaria pygmaea, L.; 0.2500 kg/ha): 8.0
MOOVA herbicidal rating ([3]; 0.0320 kg/ha): 0.0
MOOVA herbicidal rating ([3]; 0.0620 kg/ha): 7.0
MOOVA herbicidal rating ([3]; 0.1250 kg/ha): 9.0
MOOVA herbicidal rating ([3]; 0.2500 kg/ha): 9.0
CYPIR herbicidal rating (Cyperus iria; 0.0320 kg/ha): 0.0
CYPIR herbicidal rating (Cyperus iria; 0.0620 kg/ha): 0.0
CYPIR herbicidal rating (Cyperus iria; 0.1250 kg/ha): 5.0
CYPIR herbicidal rating (Cyperus iria; 0.2500 kg/ha): 9.0
CYPSE herbicidal rating ([4]; 0.0320 kg/ha): 0.0
CYPSE herbicidal rating ([4]; 0.0620 kg/ha): 7.0
CYPSE herbicidal rating ([4]; 0.1250 kg/ha): 9.0
CYPSE herbicidal rating ([4]; 0.2500 kg/ha): 9.0
